This note sets out measurements from publication PMC10964233, “Antigen-Mimic Nanoparticles in Ultrasensitive on-Chip Integrated Anti-p53 Antibody Quantification” (ACS Sensors, 2024).

In one test the target is Concanavalin A. In words: SPR + other: electrochemical impedance spectroscopy; SPR at Con A-saturated gold chips with a BSA-saturated surface as reference (298 K, 30 uL/min, 10 mM PBS pH 7.4); EIS at Con A-modified SPCEs in 5 mM [Fe(CN)6]3-/4- PBS pH 7.4; both responses fitted to Langmuir-Freundlich isotherms, Kd from the plot mean.
Test [1] has as its system Con A-modified electrode interfaces. The experiment in a line: Antibody selectivity of Con A-modified electrode interfaces. It is filed as binding. Conditions: 1.0 mg/mL nonspecific protein; Figure S7.
Test [2] concerns DO-1 peptide/HRP-IONPs with Con A-modified SPCEs. The experiment in a line: Assay specificity (SWV responses of interferents). Conditions: equivalent MAC immunoisolation conditions, Figure S17. The method, then:
Following a 10 min incubation of the antibody–IONP immunocomplexes on Con A-modified SPCEs, and subsequent washing with PBS, 100 μL of the high-sensitivity TMB substrate was added and left to react for 5 min. Square-wave voltammetry (SWV) scans were then conducted from +1.0 to −0.5 V (vs Ag/AgCl), at an amplitude of 20 mV, a potential step of 2 mV, and a frequency of 50 Hz. […] Recovery assays were conducted using DO-1 antibodies spiked into 1.0 mg/mL BSA or 1.0% human serum (human male AB plasma, Sigma, UK).
To evaluate the performance in spiked samples, recovery tests were performed in 1.0 mg/mL BSA and diluted human serum.

Turning to monoclonal DO-1 antibody, the Kd in the test with Concanavalin A is 13.6 nM.

As to bovine serum albumin [BSA], in test [1], the “Response at Con A interface relative to DO-1 antibody” value is recorded as less than 10%. The “Voltammetric response relative to 50 ng/mL DO-1 antibody” value in test [2] (1.0 mg/mL) is less than 10%.

Regarding immunoglobulin G, in test [2] (10.0 μg/mL (antibody control)), the “Voltammetric response relative to 50 ng/mL DO-1 antibody” value is less than 10%.

By Kd is commonly meant the equilibrium constant for the complex coming apart.
